Assay results taken from BindingDB's records for doi:10.1073/pnas.0509591102 (Mcgill University, 2005).
pKi: −log10 of the molar value.

How the values were obtained:
[1] = target: Kappa-type opioid receptor (Homo sapiens, UniProt P41145)
[2] = target: Alpha-2B adrenergic receptor (Homo sapiens, UniProt P18089)
[3] = target: Muscarinic acetylcholine receptor M1 (Homo sapiens, UniProt P11229)
[4] = target: Alpha-1A adrenergic receptor (Homo sapiens, UniProt P35348)
D(1B) dopamine receptor = D(1B) dopamine receptor (Homo sapiens, UniProt P21918)
[5] = target: ATP-dependent translocase ABCB1 (Homo sapiens, UniProt P08183)
D(3) dopamine receptor = D(3) dopamine receptor (Rattus norvegicus, UniProt P19020)
Chain of D(3) dopamine receptor (P19020 whole entry): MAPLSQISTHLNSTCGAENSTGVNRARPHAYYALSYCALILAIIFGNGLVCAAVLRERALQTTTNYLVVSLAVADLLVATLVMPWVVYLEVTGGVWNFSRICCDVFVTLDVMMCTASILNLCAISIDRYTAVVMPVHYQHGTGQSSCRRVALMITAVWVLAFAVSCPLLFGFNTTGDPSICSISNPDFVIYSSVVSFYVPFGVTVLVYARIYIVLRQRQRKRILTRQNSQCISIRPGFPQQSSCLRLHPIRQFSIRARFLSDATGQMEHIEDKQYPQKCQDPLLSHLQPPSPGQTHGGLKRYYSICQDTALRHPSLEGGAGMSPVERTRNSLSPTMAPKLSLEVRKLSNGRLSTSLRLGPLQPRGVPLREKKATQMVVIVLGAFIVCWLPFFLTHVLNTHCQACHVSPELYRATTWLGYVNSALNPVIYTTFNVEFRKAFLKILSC

Histamine H2 receptor = Histamine H2 receptor (Homo sapiens, UniProt P25021)
Chain of Histamine H2 receptor (P25021 whole entry): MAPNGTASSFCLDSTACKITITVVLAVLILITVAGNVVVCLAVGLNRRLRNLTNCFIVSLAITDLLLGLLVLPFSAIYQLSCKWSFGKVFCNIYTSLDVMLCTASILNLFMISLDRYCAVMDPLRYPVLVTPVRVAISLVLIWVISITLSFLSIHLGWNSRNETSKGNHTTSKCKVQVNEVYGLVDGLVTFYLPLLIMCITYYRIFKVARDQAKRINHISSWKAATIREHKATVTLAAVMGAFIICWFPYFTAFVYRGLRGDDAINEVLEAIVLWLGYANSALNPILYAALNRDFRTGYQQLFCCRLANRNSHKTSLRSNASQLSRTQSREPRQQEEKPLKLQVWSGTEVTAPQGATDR

[6] = target: 5-hydroxytryptamine receptor 7 (Homo sapiens, UniProt P34969)
[7] = target: Muscarinic acetylcholine receptor M4 (Homo sapiens, UniProt P08173)
[8] = target: Alpha-2A adrenergic receptor (Homo sapiens, UniProt P08913)
Cannabinoid receptor 2 = Cannabinoid receptor 2 (Homo sapiens, UniProt P34972)
Chain of Cannabinoid receptor 2 (P34972 whole entry): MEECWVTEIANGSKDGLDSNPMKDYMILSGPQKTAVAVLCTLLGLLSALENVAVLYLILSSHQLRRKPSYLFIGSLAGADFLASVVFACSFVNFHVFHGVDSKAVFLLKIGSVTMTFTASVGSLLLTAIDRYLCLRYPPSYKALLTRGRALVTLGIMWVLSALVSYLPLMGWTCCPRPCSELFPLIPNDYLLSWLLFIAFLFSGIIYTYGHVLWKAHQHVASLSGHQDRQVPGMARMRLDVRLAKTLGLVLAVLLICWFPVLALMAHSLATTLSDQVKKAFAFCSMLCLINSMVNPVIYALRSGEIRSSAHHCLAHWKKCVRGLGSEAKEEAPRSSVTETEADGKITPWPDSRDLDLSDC

[9] = target: Muscarinic acetylcholine receptor M5 (Homo sapiens, UniProt P08912)
Chain of Muscarinic acetylcholine receptor M5 (P08912 whole entry): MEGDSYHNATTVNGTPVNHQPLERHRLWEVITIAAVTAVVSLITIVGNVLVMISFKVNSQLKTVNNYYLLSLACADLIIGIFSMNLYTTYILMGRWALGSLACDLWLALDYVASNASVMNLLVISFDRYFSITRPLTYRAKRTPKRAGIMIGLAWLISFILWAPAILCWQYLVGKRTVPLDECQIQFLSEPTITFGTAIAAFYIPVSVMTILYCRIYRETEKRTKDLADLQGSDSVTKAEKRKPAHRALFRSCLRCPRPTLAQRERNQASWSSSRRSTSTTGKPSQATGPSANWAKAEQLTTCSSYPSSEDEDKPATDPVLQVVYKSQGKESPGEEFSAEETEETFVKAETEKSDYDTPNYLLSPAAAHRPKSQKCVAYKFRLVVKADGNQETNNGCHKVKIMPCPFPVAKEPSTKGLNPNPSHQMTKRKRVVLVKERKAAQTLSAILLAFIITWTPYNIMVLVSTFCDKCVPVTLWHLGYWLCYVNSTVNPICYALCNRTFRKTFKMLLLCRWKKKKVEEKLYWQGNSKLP

[10] = target: Beta-1 adrenergic receptor (Rattus norvegicus, UniProt P18090)
Chain of Beta-1 adrenergic receptor (P18090 whole entry): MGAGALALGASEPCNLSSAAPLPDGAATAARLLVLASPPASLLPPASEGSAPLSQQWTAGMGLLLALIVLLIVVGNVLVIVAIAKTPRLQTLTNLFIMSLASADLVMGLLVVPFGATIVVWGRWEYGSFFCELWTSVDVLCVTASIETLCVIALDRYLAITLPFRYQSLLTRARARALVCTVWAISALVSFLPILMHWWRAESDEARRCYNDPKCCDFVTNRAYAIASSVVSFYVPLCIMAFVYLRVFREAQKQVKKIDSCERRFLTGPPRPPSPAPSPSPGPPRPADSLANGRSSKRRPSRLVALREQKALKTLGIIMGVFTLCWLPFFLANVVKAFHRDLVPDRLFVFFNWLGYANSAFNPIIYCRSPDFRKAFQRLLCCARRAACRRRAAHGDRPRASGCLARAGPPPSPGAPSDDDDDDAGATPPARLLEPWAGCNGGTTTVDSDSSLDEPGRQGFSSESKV

[11] = target: Beta-2 adrenergic receptor (Rattus norvegicus, UniProt P10608)
[12] = target: Sigma non-opioid intracellular receptor 1 (Rattus norvegicus, UniProt Q9R0C9)
[13] = target: 5-hydroxytryptamine receptor 2A (Homo sapiens, UniProt P28223)
[14] = target: Alpha-1B adrenergic receptor (Homo sapiens, UniProt P35368)
[15] = target: 5-hydroxytryptamine receptor 1A (Homo sapiens, UniProt P08908)
[16] = target: 5-hydroxytryptamine receptor 6 (Homo sapiens, UniProt P50406)
[17] = target: AP-2 complex subunit sigma (Rattus norvegicus, UniProt P62744)
Chain of AP-2 complex subunit sigma (P62744 whole entry, looked up, one chain of several): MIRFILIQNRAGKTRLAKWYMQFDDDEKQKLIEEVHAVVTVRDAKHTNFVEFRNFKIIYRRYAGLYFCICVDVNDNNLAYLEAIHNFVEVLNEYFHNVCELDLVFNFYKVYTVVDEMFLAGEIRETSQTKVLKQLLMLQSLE

[18] = target: 5-hydroxytryptamine receptor 1D (Homo sapiens, UniProt P28221)
[19] = target: Neuronal acetylcholine receptor subunit alpha-2 (Homo sapiens, UniProt Q15822)
Chain of Neuronal acetylcholine receptor subunit alpha-2 (Q15822 whole entry): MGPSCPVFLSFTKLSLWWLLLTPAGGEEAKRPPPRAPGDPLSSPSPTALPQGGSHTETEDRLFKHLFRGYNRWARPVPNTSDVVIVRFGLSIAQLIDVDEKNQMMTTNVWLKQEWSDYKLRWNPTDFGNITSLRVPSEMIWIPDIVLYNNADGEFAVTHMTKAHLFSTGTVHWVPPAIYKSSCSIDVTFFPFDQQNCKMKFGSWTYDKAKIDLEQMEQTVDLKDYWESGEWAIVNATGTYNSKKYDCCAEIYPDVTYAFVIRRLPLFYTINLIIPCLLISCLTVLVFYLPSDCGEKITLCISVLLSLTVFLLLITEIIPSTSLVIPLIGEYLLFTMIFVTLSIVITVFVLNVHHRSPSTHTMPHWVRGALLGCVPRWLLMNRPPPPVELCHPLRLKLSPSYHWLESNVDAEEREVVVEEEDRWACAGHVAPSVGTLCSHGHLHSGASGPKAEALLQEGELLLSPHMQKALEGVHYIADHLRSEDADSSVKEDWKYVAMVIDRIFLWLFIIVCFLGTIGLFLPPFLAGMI

Cannabinoid receptor 1 = Cannabinoid receptor 1 (Rattus norvegicus, UniProt P20272)
D(2) dopamine receptor = D(2) dopamine receptor (Homo sapiens, UniProt P14416)
Chain of D(2) dopamine receptor (P14416 whole entry): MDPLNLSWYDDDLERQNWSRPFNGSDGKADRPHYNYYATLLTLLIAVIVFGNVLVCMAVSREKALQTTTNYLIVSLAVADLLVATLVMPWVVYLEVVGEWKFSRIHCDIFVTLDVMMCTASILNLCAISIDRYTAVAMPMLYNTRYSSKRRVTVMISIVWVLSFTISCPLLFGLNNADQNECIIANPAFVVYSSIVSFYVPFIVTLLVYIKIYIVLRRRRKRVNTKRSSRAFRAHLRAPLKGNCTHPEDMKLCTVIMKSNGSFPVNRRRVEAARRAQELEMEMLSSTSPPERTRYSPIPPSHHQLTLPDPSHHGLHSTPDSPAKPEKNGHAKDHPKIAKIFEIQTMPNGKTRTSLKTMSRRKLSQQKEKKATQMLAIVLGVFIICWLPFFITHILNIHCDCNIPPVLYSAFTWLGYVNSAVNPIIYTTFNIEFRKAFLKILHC

[20] = target: 5-hydroxytryptamine receptor 1B (Homo sapiens, UniProt P28222)
[21] = target: Muscarinic acetylcholine receptor M2 (Homo sapiens, UniProt P08172)
Chain of Muscarinic acetylcholine receptor M2 (P08172 whole entry): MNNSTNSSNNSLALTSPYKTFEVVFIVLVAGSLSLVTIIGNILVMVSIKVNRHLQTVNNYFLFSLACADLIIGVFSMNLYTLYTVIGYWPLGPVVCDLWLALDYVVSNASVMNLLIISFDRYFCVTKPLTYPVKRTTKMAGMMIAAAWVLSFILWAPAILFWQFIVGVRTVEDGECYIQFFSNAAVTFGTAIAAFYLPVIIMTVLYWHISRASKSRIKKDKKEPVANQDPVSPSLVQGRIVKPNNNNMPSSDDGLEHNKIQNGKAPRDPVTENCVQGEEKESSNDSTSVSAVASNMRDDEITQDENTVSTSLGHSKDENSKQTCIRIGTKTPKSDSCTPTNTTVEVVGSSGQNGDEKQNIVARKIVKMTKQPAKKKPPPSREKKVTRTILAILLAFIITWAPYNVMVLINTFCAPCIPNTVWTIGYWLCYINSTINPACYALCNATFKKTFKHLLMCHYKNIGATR

[22] = target: Sodium-dependent noradrenaline transporter (Homo sapiens, UniProt P23975)
Chain of Sodium-dependent noradrenaline transporter (P23975 whole entry): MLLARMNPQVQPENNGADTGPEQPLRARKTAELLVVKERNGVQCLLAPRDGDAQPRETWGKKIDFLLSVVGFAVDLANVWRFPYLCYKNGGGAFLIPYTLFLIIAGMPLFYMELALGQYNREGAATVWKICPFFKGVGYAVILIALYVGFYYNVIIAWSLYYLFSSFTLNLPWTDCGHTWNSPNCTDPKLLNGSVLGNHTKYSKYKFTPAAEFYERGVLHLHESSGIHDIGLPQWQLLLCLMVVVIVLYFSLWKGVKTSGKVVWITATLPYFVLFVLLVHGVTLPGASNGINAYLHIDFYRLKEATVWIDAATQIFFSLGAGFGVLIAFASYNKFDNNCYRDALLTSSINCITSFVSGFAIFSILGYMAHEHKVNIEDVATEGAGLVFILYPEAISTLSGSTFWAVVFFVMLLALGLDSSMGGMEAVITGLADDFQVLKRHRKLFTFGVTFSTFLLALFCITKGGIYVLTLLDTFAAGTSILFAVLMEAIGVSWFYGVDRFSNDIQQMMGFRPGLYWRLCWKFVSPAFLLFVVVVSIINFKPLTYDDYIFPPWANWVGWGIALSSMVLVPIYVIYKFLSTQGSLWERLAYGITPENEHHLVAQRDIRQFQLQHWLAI

[23] = target: 5-hydroxytryptamine receptor 3A (Homo sapiens, UniProt P46098)
[24] = target: 5-hydroxytryptamine receptor 2C (Rattus norvegicus, UniProt P08909)
[25] = target: Muscarinic acetylcholine receptor M3 (Homo sapiens, UniProt P20309)
Mu-type opioid receptor = Mu-type opioid receptor (Homo sapiens, UniProt P35372)
Histamine H1 receptor = Histamine H1 receptor (Homo sapiens, UniProt P35367)
[26] = target: Potassium voltage-gated channel subfamily H member 2 (Homo sapiens, UniProt Q12809)
[27] = target: Neuronal acetylcholine receptor subunit alpha-4 (Homo sapiens, UniProt P43681)
[28] = target: Alpha-2C adrenergic receptor (Homo sapiens, UniProt P18825)
[29] = target: 5-hydroxytryptamine receptor 1E (Homo sapiens, UniProt P28566)
[30] = target: Neuronal acetylcholine receptor subunit alpha-3 (Homo sapiens, UniProt P32297)
D(4) dopamine receptor = D(4) dopamine receptor (Homo sapiens, UniProt P21917)
D(1A) dopamine receptor = D(1A) dopamine receptor (Homo sapiens, UniProt P21728)
Chain of D(1A) dopamine receptor (P21728 whole entry): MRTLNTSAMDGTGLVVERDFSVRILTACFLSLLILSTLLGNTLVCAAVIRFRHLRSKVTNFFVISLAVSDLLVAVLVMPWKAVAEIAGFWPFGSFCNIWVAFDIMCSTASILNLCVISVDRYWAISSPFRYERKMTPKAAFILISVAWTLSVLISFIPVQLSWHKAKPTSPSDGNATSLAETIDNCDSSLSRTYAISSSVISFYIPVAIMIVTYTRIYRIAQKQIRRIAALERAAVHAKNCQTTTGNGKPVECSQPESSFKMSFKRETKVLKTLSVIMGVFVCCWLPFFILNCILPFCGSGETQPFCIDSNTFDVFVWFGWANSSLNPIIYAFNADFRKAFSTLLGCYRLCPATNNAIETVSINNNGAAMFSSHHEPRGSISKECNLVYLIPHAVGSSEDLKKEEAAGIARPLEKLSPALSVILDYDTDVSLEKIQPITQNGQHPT

Measured: pKi

NC(=O)c1cccc(-c2cccc(OC(=O)NC3CCCCC3)c2)c1 [URB 597]
< 5.00: all assays above
